Where two headings read alike, the source gives them in different places.
Experiments:
Type in all cases: cell-based, human
HBEC30KT = assay: Cell viability (ATP, Cell Titer Glo, 4 days), HBEC30KT; conditions: Homo sapiens
Protocol: (§1) FIG. 6A. […] Cell viability is plotted vs. compound concentration. Compound was added to cells plated at 15% confluence in 96-well plates in RPMI-1640 media supplemented with 5% Fetal Bovine Serum and 2 mM L-Glutamine. After 4 days of incubation, ATP levels were measured using Cell Titer Glo (Promega). Data are presented as the average of 2 replicates ±SEM.
(§2) Selectivity may be measured by the half maximal inhibitory concentration (IC50), which, as used herein, is a measure of the effectiveness of a compound in killing cells. This quantitative measure indicates how much of a particular compound is needed to kill a particular cell population by half (e.g., as indicated by the amount of ATP). […] The IC50 can be determined by constructing a dose-response curve. The lower the IC50, the higher the potency, and the greater the difference between IC50 values for different cell lines (e.g., sensitive lines vs. insensitive lines, and sensitive lines vs. normal lines) the greater the selectivity. […]

H2122 = assay: Cell viability dose-response, H2122; conditions: Homo sapiens
In short: (§3)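 Cells plated at 15% confluence in RPMI-1640 with 5% FBS and 2 mM L-glutamine, treated with compound in a 12-point, 3-fold dilution series from 50 micromolar, in duplicate. ATP measured by Cell Titer Glo after 4 days; IC50 taken from the dose-response curve.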

H1819 = assay: Cell viability dose-response, H1819; conditions: Homo sapiens
In short: as §3

H2073 = assay: Cell viability dose-response, H2073; conditions: Homo sapiens; for IC50: NCI-H2073, Tables 3 and 4, read-out: IC50 (uM) vs indicated non-small cell lung cancer cell line H2073
Protocol: as §1, §2
(§4) With this information, we synthesized and tested a series of small molecules derived in conception from the oxalamide and chromone scaffold including N-acyl ureas, as shown in Tables 6-8. Each compound was tested in a 12-point dose-response study starting at 50 micromolar and decreasing in 3-fold increments to sub-nanomolar concentrations, in duplicate. Additionally, one or more additional cell line was tested in the same way.

H2009 = assay: Cell viability dose-response, H2009; conditions: Homo sapiens, NCI-H2009; Tables 3 and 4; read-out: IC50 (uM) vs indicated non-small cell lung cancer cell line H2009
In short: (§5)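 Read-out is total cellular ATP, measured with CellTiter-Glo after four days of compound treatment. Cells start at 15% confluence in RPMI-1640 containing 5% FBS and 2 mM L-glutamine. Each point averages two replicates (±SEM).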

HCC4017 = assay: Cell viability dose-response, HCC4017; conditions: Homo sapiens, HCC4017, Tables 3 and 4; read-out: IC50 (uM) vs indicated non-small cell lung cancer cell line HCC4017
Protocol: as §1, §2, §4

HCC44 = assay: Cell viability dose-response, HCC44; conditions: Homo sapiens
In short: as §5

[1] = Tables 3 and 4, read-out: HBEC30KT IC50
[2] = NCI-H2122, Tables 3 and 4, read-out: IC50 (uM) vs indicated non-small cell lung cancer cell line H2122
[3] = NCI-H1819, Tables 3 and 4, read-out: IC50 (uM) vs indicated non-small cell lung cancer cell line H1819
[4] = 12-point dose-response starting at 50 micromolar, 3-fold increments, in duplicate, read-out: toxicity data, HBEC30KT
[5] = NCI-H2122, 12-point dose-response starting at 50 micromolar, 3-fold increments, in duplicate, read-out: toxicity data, H2122
[6] = NCI-H1819, 12-point dose-response starting at 50 micromolar, 3-fold increments, in duplicate, read-out: toxicity data, H1819

Row | SMILES | IC50 (HBEC30KT; [1]) [µM] | IC50 (H2122; [2]) [µM] | IC50 (H1819; [3]) [µM] | IC50 (H2073) [µM] | IC50 (HBEC30KT; [4]) [µM] | IC50 (H2122; [5]) [µM] | IC50 (H1819; [6]) [µM] | IC50 (H2009) [µM] | further results
1 | COc1ccc2nc(NC(=O)c3ccc(Br)cc3)sc2c1 [SW000931] | 360 | 2.62 | 308 | 2.33 | – | – | – | – | –
2 | COc1ccc(CCNC(=O)C(=O)Nc2ccccc2Br)cc1 [SW207009-1] | – | – | – | – | 49.5 | ≥ 49.5 | ≥ 49.5 | – | –
3 | COc1ccc(CCNC(=O)C(=O)Nc2ccc(C(F)(F)F)c(Br)c2)cc1 [SW207015-1] | – | – | – | – | 44.1 | 0.456 | ≥ 49.5 | – | –
4 | O=S(=O)(Nc1nc2ccccc2s1)c1ccc(C(F)(F)F)cc1 [SW202754] | 198 | 35.4 | 30.2 | 24.8 | – | – | – | 32.7 | –
5 | COc1ccc(C(=O)Nc2nc3ccc(OC)cc3s2)cc1 [SW202745] | 336 | 1.09 | 64.3 | 2.12 | – | – | – | – | –
6 | COc1ccc(CCNC(=O)C(=O)Nc2ccc(Cl)cc2C(F)(F)F)cc1 [SW207013-1] | – | – | – | – | 49.5 | ≥ 49.5 | ≥ 49.5 | – | –
7 | COc1ccc(CCNC(=O)C(=O)NCc2ccc(OC)cc2)cc1 [SW207018-1] | – | – | – | – | 49.5 | ≥ 49.5 | ≥ 49.5 | – | –
8 | Cc1ccc(NC(=O)c2sc3ccccc3c2Cl)c(F)c1 [SW202551] | – | 1.36 | – | – | – | – | – | – | IC50 (HCC4017): 390 µM; IC50 (HCC44; HCC44, Tables 3 and 4, read-out: IC50 (uM) vs indicated non-small cell lung cancer cell line HCC44): 1.42 µM
9 | CCOc1cccc(NC(=O)C(=O)NCCc2ccc(OC)cc2)c1 [SW207016-1] | – | – | – | – | 49.5 | 23.8 | ≥ 49.5 | – | –
10 | COc1ccc2nc(NS(=O)(=O)c3ccccc3)sc2c1 [SW202750] | 127 | – | 144 | 97.6 | – | – | – | – | –
11 | COc1ccc2nc(NC(=O)CCc3ccccc3)sc2c1 [SW202751] | 376 | – | 995 | – | – | – | – | – | –
12 | COc1ccc(CCNC(=O)C(=O)Nc2ccc(Cl)cc2)cc1OC [SW207007-1] | – | – | – | – | 49.5 | ≥ 49.5 | ≥ 49.5 | – | –
13 | COc1ccc(C(=O)Nc2nc3cc(N)ccc3s2)cc1 [SW202739] | 250 | 114 | 132 | 126 | – | – | – | 137 | –
14 | O=C(O)c1sc2ccccc2c1Cl [SW138238] | 4950 | – | 1170 | – | – | – | – | 179 | –
15 | COc1ccc2nc(NC(=O)c3ccc(F)cc3)sc2c1 [SW008027] | 32.2 | 0.899 | 67.3 | 5.1 | – | – | – | 24.6 | –
16 | COc1ccc2nc(NC(=O)c3ccccc3)sc2c1 [SW202743] | 22.3 | 0.538 | 19.8 | 7.04 | – | – | – | 20.6 | –
17 | COc1ccc(CCNC(=O)C(=O)Nc2cccc(C#N)c2)cc1 [SW207021-1] | – | – | – | – | 49.5 | 0.407 | ≥ 49.5 | – | –
18 | Cc1cccc(CCNC(=O)C(=O)Nc2ccc(Cl)cc2)c1 [SW207006-1] | – | – | – | – | 49.5 | ≥ 49.5 | ≥ 49.5 | – | –
19 | O=c1c(Oc2ccccc2F)coc2cc(OCc3cnn(-c4ccccc4)c3)ccc12 [SW043139] | – | – | – | – | – | – | – | – | AC50 (HCC44; HCC44, Table 8, 12-point dose-response starting at 50 micromolar): 50 µM; AC50 (H2122; NCI-H2122, Table 8, 12-point dose-response starting at 50 micromolar): 0.166 µM; AC50 (H1819; NCI-H1819, Table 8, 12-point dose-response starting at 50 micromolar): 50 µM; AC50 (H2073; NCI-H2073, Table 8, 12-point dose-response starting at 50 micromolar): 50 µM
20 | COc1ccc2nc(NC(=O)c3ccc([N+](=O)[O-])o3)sc2c1 [SW202753] | 20 | 4.36 | 18.2 | 6.25 | – | – | – | 13.4 | –
21 | COc1ccc2nc(NS(=O)(=O)c3ccc(Br)cc3)sc2c1 [SW166942] | – | 59.6 | 46.7 | 47.6 | – | – | – | 78.6 | –
22 | COc1ccc2nc(NS(=O)(=O)CC34CCC(CC3=O)C4(C)C)sc2c1 (stereo not shown) [SW202752] | – | – | 166 | 110 | – | – | – | 4950 | –
